# Experimental data taken from ChEMBL document CHEMBL5344413, “Discovery of 4-(1,2,4-Oxadiazol-5-yl)azepan-2-one Derivatives as a New Class of Cannabinoid Type 2 Receptor Agonists for the Treatment of Inflammatory Pain” (J Med Chem, 2023).
# Target: Cannabinoid receptor 1 (Homo sapiens, UniProt P21554)
# Assay: Agonist activity at human CB1 receptor expressed in CHO cells assessed as inhibition of forskolin-stimulated intracellular cAMP accumulation measured after 30 mins by Glosensor assay
# Format: cell-based
# Details: not given
# Chain of Cannabinoid receptor 1 (P21554 whole entry): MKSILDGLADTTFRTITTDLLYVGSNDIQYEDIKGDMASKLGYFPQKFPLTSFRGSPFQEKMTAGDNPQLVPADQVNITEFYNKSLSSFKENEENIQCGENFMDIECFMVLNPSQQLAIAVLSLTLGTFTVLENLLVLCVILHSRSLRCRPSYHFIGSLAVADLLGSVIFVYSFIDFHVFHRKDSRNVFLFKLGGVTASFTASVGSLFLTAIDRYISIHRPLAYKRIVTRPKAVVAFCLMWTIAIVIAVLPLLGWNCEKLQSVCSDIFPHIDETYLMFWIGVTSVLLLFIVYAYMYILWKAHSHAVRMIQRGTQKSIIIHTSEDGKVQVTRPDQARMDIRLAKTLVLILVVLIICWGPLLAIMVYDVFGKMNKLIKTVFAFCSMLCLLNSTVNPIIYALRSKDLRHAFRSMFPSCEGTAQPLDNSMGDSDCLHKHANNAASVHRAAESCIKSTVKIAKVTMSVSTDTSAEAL
row,SMILES,EC50 [µM]
1,O=C1CC(c2nc(-c3ccc(F)cc3)no2)CCCN1c1ccc(F)cc1 (stereo unspecified),> 10
2,O=C1CC(c2nc(-c3ccncc3)no2)CCCN1c1ccc(F)cc1 (stereo unspecified),> 10
3,COc1cc(F)ccc1-c1noc(C2CCCN(c3ccc(F)cc3)C(=O)C2)n1 (stereo unspecified),> 10
4,O=C1CC(c2nc(-c3ccc(F)c4cn[nH]c34)no2)CCCN1c1ccc(Cl)cc1 (stereo unspecified),> 10
5,O=C1CC(c2nc(-c3ccc(F)c4cn[nH]c34)no2)CCCN1c1ccccc1F (stereo unspecified),> 10
6,O=C1CC(c2nc(-c3ccc(F)c4cn[nH]c34)no2)CCCN1c1ccc(C(F)(F)F)cc1 (stereo unspecified),> 10
7,O=C1CC(c2nc(Cc3ccccc3)no2)CCCN1c1ccc(F)cc1 (stereo unspecified),> 10
8,O=C(c1ccc(F)cc1)N1CC2(CC(c3nc(-c4ccccc4)no3)C2)C1,> 10
9,O=C1C[C@H](c2nc(-c3ccc(F)c4cn[nH]c34)no2)CCCN1c1ccc(F)cc1,> 30
10,O=C1CC(c2nc(Cc3ccc(F)cc3)no2)CCCN1c1ccc(F)cc1 (stereo unspecified),> 10
11,COc1ccc(N2CCCC(c3nc(-c4ccc(F)c5cn[nH]c45)no3)CC2=O)cc1 (stereo unspecified),> 10
12,O=C1CC(c2nc(-c3ccc(Cl)cc3)no2)CCCN1c1ccc(F)cc1 (stereo unspecified),> 10
13,Fc1ccc(Nc2cccc(-c3nc(-c4ccccc4)no3)c2)cc1,> 10
14,O=C(c1ccc(F)cc1)N1CC(c2nc(-c3ccccc3)no2)C1,> 10
15,O=C1CC(c2nc(Cc3cccc(F)c3)no2)CCCN1c1ccc(F)cc1 (stereo unspecified),> 10
16,O=C1CC(c2nc(-c3ccc(F)c4ccccc34)no2)CCCN1c1ccc(F)cc1 (stereo unspecified),> 10
17,O=C1CC(c2nc(-c3ccc(F)c4cc[nH]c34)no2)CCCN1c1ccc(F)cc1 (stereo unspecified),> 10
18,O=C1C=C(c2nc(-c3ccccc3)no2)CCCN1c1ccc(F)cc1,> 10
19,Cc1cc(F)ccc1-c1noc(C2CCCN(c3ccc(F)cc3)C(=O)C2)n1 (stereo unspecified),> 10
20,O=C1C[C@@H](c2nc(-c3ccc(F)c4cn[nH]c34)no2)CCCN1c1ccc(F)cc1,> 30
21,O=C1CC(c2nc(-c3ccc(F)cc3Cl)no2)CCCN1c1ccc(F)cc1 (stereo unspecified),> 10

# Target: T1, Cannabinoid receptor 2 (Homo sapiens, UniProt P34972)
# T1 sequence (P34972 whole entry): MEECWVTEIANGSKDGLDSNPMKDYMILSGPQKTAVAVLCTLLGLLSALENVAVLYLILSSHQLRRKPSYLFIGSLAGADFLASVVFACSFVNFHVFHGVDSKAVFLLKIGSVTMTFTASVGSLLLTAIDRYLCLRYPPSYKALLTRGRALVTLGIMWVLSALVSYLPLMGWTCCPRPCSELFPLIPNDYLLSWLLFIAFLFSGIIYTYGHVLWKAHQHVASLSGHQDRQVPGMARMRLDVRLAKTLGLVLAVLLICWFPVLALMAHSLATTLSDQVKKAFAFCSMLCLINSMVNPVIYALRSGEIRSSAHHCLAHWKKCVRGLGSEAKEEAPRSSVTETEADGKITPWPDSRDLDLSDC
# Assay: Agonist activity at human CB2 receptor expressed in CHO cells assessed as inhibition of forskolin-stimulated intracellular cAMP accumulation measured after 30 mins by Glosensor assay relative to control
# Format: functional, cell-based
# Details: filed as agonist
row,SMILES,Emax [%]
1,O=C1CC(c2nc(-c3ccc(F)cc3)no2)CCCN1c1ccc(F)cc1 (stereo unspecified),91
2,COc1cc(F)ccc1-c1noc(C2CCCN(c3ccc(F)cc3)C(=O)C2)n1 (stereo unspecified),91
3,O=C1CC(c2nc(-c3ccc(F)c4cn[nH]c34)no2)CCCN1c1ccc(Cl)cc1 (stereo unspecified),112
4,O=C1CC(c2nc(-c3ccc(F)c4cn[nH]c34)no2)CCCN1c1ccccc1F (stereo unspecified),93
5,O=C1C[C@H](c2nc(-c3ccc(F)c4cn[nH]c34)no2)CCCN1c1ccc(F)cc1,102
6,COc1ccc(N2CCCC(c3nc(-c4ccc(F)c5cn[nH]c45)no3)CC2=O)cc1 (stereo unspecified),101
7,O=C1CC(c2nc(-c3ccc(F)c4ccccc34)no2)CCCN1c1ccc(F)cc1 (stereo unspecified),97
8,O=C1CC(c2nc(-c3ccc(F)c4cc[nH]c34)no2)CCCN1c1ccc(F)cc1 (stereo unspecified),123
9,O=C1C[C@@H](c2nc(-c3ccc(F)c4cn[nH]c34)no2)CCCN1c1ccc(F)cc1,80

# Target: T1, Cannabinoid receptor 2
# Assay: Agonist activity at human CB2 receptor expressed in CHO cells assessed as inhibition of forskolin-stimulated intracellular cAMP accumulation measured after 30 mins by Glosensor assay
# Format: functional, cell-based
# Details: not given
row,SMILES,EC50 [µM]
1,O=C1CC(c2nc(-c3ccc(F)cc3)no2)CCCN1c1ccc(F)cc1 (stereo unspecified),1.39
2,O=C1CC(c2nc(-c3ccncc3)no2)CCCN1c1ccc(F)cc1 (stereo unspecified),> 10
3,COc1cc(F)ccc1-c1noc(C2CCCN(c3ccc(F)cc3)C(=O)C2)n1 (stereo unspecified),0.445
4,O=C1CC(c2nc(-c3ccc(F)c4cn[nH]c34)no2)CCCN1c1ccc(Cl)cc1 (stereo unspecified),0.805
5,O=C1CC(c2nc(-c3ccc(F)c4cn[nH]c34)no2)CCCN1c1ccccc1F (stereo unspecified),0.0454
6,O=C1CC(c2nc(-c3ccc(F)c4cn[nH]c34)no2)CCCN1c1ccc(C(F)(F)F)cc1 (stereo unspecified),> 10
7,O=C1CC(c2nc(Cc3ccccc3)no2)CCCN1c1ccc(F)cc1 (stereo unspecified),> 10
8,O=C(c1ccc(F)cc1)N1CC2(CC(c3nc(-c4ccccc4)no3)C2)C1,> 10
9,O=C1C[C@H](c2nc(-c3ccc(F)c4cn[nH]c34)no2)CCCN1c1ccc(F)cc1,0.0348
10,O=C1CC(c2nc(Cc3ccc(F)cc3)no2)CCCN1c1ccc(F)cc1 (stereo unspecified),> 10
11,COc1ccc(N2CCCC(c3nc(-c4ccc(F)c5cn[nH]c45)no3)CC2=O)cc1 (stereo unspecified),1.21
12,O=C1CC(c2nc(-c3ccc(Cl)cc3)no2)CCCN1c1ccc(F)cc1 (stereo unspecified),> 10
13,Fc1ccc(Nc2cccc(-c3nc(-c4ccccc4)no3)c2)cc1,> 10
14,O=C(c1ccc(F)cc1)N1CC(c2nc(-c3ccccc3)no2)C1,> 10
15,O=C1CC(c2nc(Cc3cccc(F)c3)no2)CCCN1c1ccc(F)cc1 (stereo unspecified),> 10
16,O=C1CC(c2nc(-c3ccc(F)c4ccccc34)no2)CCCN1c1ccc(F)cc1 (stereo unspecified),1.21
17,O=C1CC(c2nc(-c3ccc(F)c4cc[nH]c34)no2)CCCN1c1ccc(F)cc1 (stereo unspecified),0.449
18,O=C1C=C(c2nc(-c3ccccc3)no2)CCCN1c1ccc(F)cc1,> 10
19,Cc1cc(F)ccc1-c1noc(C2CCCN(c3ccc(F)cc3)C(=O)C2)n1 (stereo unspecified),3.3
20,O=C1C[C@@H](c2nc(-c3ccc(F)c4cn[nH]c34)no2)CCCN1c1ccc(F)cc1,0.0587
21,O=C1CC(c2nc(-c3ccc(F)cc3Cl)no2)CCCN1c1ccc(F)cc1 (stereo unspecified),> 10
